According to patent publication US12390437B2, “Itaconic acid derivatives and uses thereof intreating an inflammatory disease or a disease associated with an undesirable immune response” (Sitryx Therapeutics Limited, priority 2019, dated 2025):
Like-named read-outs stand apart in the source and are kept apart here.

Tests used:
[1] = system: IL-1β cytokine output from THP-1s; test: THP-1 AlphaLISA IL-1β cytokine assay; assay type: cell-based, human; conditions: LPS 24 hr then Nigericin 1 hour, read-out: IL-1β (IC50)
Procedure: Measuring Inhibitory Effects on IL-1β and IL-6 Cytokine Output from THP-1s
The cytokine inhibition profiles of compounds of formula (IW-1) were determined in a differentiated THP-1 cell assay. All assays were performed in RPMI-1640 growth medium (Gibco), supplemented with 10% fetal bovine serum (FBS; Gibco), 1% penicillin-streptomycin and 1% sodium pyruvate unless specified otherwise. The IL-1β and IL-6 cytokine inhibition assays were each run in a background of differentiated THP-1 cells as described below. All reagents described were from Sigma-Aldrich unless specified otherwise. Compounds were prepared as 10 mM DMSO stocks.
THP-1 cells were expanded as a suspension up to 80% confluence in appropriate growth medium. Cells were harvested, suspended, and treated with an appropriate concentration of phorbol 12-myristate 13-acetate (PMA) over a 72 hr period (37° C./5% CO2).
Following 72 hrs of THP-1 cell incubation, cellular medium was removed and replaced with fresh growth media containing 1% of FBS. Working concentrations of compounds were prepared separately in 10% FBS treated growth medium and pre-incubated with the cells for 30 minutes (37° C./5% CO2). Following the 30 minute compound pre-incubation, THP-1s were treated with an appropriate concentration of LPS and the THP-1s were subsequently incubated for a 24 hr period (37° C./5% CO2). An appropriate final concentration of Nigericin was then dispensed into the THP-1 plates and incubated for 1 hour (37° C./5% CO2) before THP-1 supernatants were harvested and collected in separate polypropylene 96-well holding plates.
Reagents from each of the IL-1β and IL-6 commercial kits (Perkin Elmer) were prepared and run according to the manufacturer's instructions. Subsequently, fluorescence signal detection in a microplate reader was measured (EnVision® Multilabel Reader, Perkin Elmer).
Percentage inhibition was calculated per cytokine by normalising the sample data to the high and low controls used within each plate (+/−LPS respectively). Percentage inhibition was then plotted against compound concentration and the 50% inhibitory concentration (IC50) was determined from the resultant concentration-response curve.

[2] = Mouse pharmacokinetic study, intravenous dosing; assay type: in vivo; conditions: male, C57BL/6, mouse, iv, plasma, 10 mg/kg i.v., read-out: Parent compound concentration following intravenous administration
Procedure: Pharmacokinetic studies were carried out in 6-8-week-old male C57BL/6 mice having free access to food and water. Intravenous dosing was conducted at 10 mg/kg (5 mL/kg; vehicle: 10% DMSO-90% (25% HP-13-CD in water)) via tail vein injection, with sampling at 3 min, 8 min, 15 min, 30 min, 1, 2, 4, 6 and 8 hours, i.e., 9 time points in total (N=3/time point), using semi-serial bleeding for plasma. Oral compound administration, via gavage, was carried out at 100 mg/kg (10 mL/kg; vehicle: 5% DMSO-95% (0.5% HPMC+0.1% Tween 80 in water)), with sampling at 5 min, 15 min, 30 min, 1, 2, 4, 6, 8 and 24 hours, i.e., 9 time points in total (N=3/time point), using semi-serial bleeding for plasma.
For both intravenous and oral routes, the mice were restrained manually at the designated time points, with ca. 110 μL of blood being taken into K2EDTA tubes via the facial vein. Blood samples were put on ice and centrifuged to obtain plasma samples from which the concentration at each time point was measured by LC-MS/MS.

[3] = Homo sapiens, THP-1, PMA-differentiated THP-1 cells
[4] = Homo sapiens, PMA-differentiated THP-1 cells

SMILES | IC50 [1, 3] | further results
C=C(CC(=O)O[C@@H](C)CCCCCC)C(=O)OC(c1nn[nH]n1)C1CC1 (stereo partly drawn) [Example 166, 1-(cyclopropyl(1H-tetrazol-5-yl)methyl) 4-((S)-octan-2-yl) 2-methylenesuccinate] | 67.4 µM | 
C=C(CC(=O)OC1CCCCC1)C(=O)OC1CCCCC1 [Example 167, dicyclohexyl 2-methylenesuccinate] |  | IC50 [1, 4]: 29.1 µM
C=C(C(=O)OCC(=O)O)C(OC)C(=O)OC1CCCCCCC1 (centres unmarked) [Example 171, 2-((4-(cyclooctyloxy)-3-methoxy-2-methylene-4-oxobutanoyl)oxy)acetic Acid] |  | IC50 [1, 4]: 21.8 µM
C=C(CC(=O)OC12CC3CC(CC(C3)C1)C2)C(=O)OCC(=O)O [Example 172, 2-((4-((-adamantan-1-yl)oxy)-2-methylene-4-oxobutanoyl)oxy)acetic Acid] |  | concentration at 0.05 h ([2]; time 0.05 h): 23700 ng/mL; concentration at 0.133 h ([2]; time 0.133 h): 11300 ng/mL; concentration at 0.25 h ([2]; time 0.25 h): 2640 ng/mL; concentration at 0.5 h ([2]; time 0.5 h): 1210 ng/mL; concentration at 1 h ([2]; time 1 h): 75 ng/mL; concentration at 2 h ([2]; time 2 h): 9.9 ng/mL; concentration at 4 h ([2]; time 4 h): 6.1 ng/mL; concentration at 6 h ([2]; time 6 h): < 4 ng/mL; concentration at 8 h ([2]; time 8 h): < 4 ng/mL; IC50 [1, 4]: 23.8 µM
C=C(CC(=O)OC(C)Cc1cc(Cl)cc(Cl)c1)C(=O)OCC(=O)O (centres unmarked) [Example 177, 2-((4-((1-(3,5-dichlorophenyl)propan-2-yl)oxy)-2-methylene-4-oxobutanoyl)oxy)acetic acid] | 20.5 µM | 
C=C(CC(=O)OC(C1CCCCC1)C(F)(F)F)C(=O)OCC(=O)O (centres unmarked) [Example 180, 2-((4-(1-cyclohexyl-2,2,2-trifluoroethoxy)-2-methylene-4-oxobutanoyl)oxy)acetic acid] | 8.2 µM | 
C=C(CC(=O)O[C@H](C)CCCCCC)C(=O)O[C@H]1[C@@H]2CC[C@H]1CN(S(C)(=O)=O)C2 [Example 186, 1-((endo)-3-(methylsulfonyl)-3-azabicyclo[3.2.1]octan-8-yl) 4-((R)-octan-2-yl) 2-methylenesuccinate] | 3.5 µM | 
C=C(CC(=O)O[C@H](C)CCCCCC)C(=O)OCc1cc(=O)[nH]o1 [Example 187, (R)-4-(octan-2-yl) 1-((3-oxo-2,3-dihydroisoxazol-5-yl)methyl) 2-methylenesuccinate] | 2.9 µM | 
C=C(CC(=O)OC1(C2CCCCC2)CCC1)C(=O)OCC(=O)O [Example 191, 2-((4-(1-cyclohexylcyclobutoxy)-2-methylene-4-oxobutanoyl)oxy)acetic acid] | 26.6 µM | 
C=C(CC(=O)OC1(CCCCC)CCC1)C(=O)OCC(=O)O [Example 194, 2-((2-methylene-4-oxo-4-(1-pentylcyclobutoxy)butanoyl)oxy)acetic acid] | 24.8 µM | 
C=C(CC(=O)OC1CC2CCC1(C)C2(C)C)C(=O)OCC(=O)O (stereo not drawn) [Example 196, 2-((2-methylene-4-oxo-4-(((exo)-1,7,7-trimethylbicyclo[2.2.1]heptan-2-yl)oxy)butanoyl)oxy)acetic acid] |  | IC50 ([1]; PMA-differentiated THP-1 cells): 18.8 µM
C=C(CC(=O)O[C@H](C)c1ccc(C(F)(F)F)cc1)C(=O)OCC(=O)O [Example 200, (R)-2-((2-methylene-4-oxo-4-(1-(4-(trifluoromethyl)phenyl)ethoxy)butanoyl)oxy) acetic acid] | 11.5 µM | 
C=C(CC(=O)O[C@@H](C)c1ccc(C(F)(F)F)cc1)C(=O)OCC(=O)O [Example 201, (S)-2-((2-methylene-4-oxo-4-(1-(4-(trifluoromethyl)phenyl)ethoxy)butanoyl)oxy) acetic acid] | 24.6 µM | 
C=C(CC(=O)OC1(C2CCCCC2)CC1)C(=O)OCC(=O)O [Example 202, 2-((4-(1-cyclohexylcyclopropoxy)-2-methylene-4-oxobutanoyl)oxy)acetic acid] |  | IC50 [1, 4]: 36.7 µM
C=C(CC(=O)OC(C(C)(C)C)C(C)(C)C)C(=O)OCC(=O)O [Example 204, 2-((2-methylene-4-oxo-4-((2,2,4,4-tetramethylpentan-3-yl)oxy)butanoyl)oxy)acetic Acid] |  | IC50 [1, 4]: 41.7 µM
C=C(CC(=O)OC1C(C)(C)CC1(C)C)C(=O)OCCC(=O)O [Example 207, 3-((2-methylene-4-oxo-4-(2,2,4,4-tetramethylcyclobutoxy)butanoyl)oxy) propanoic Acid] | 100 µM | 

Further lines, with some results ahead:

IC50 [1, 3] | SMILES | further results
49.3 µM | C=C(C(=O)OCC(=O)O)C(C)C(=O)OC1CCCCCCC1 (centres unmarked) [Example 168, 2-((4-(cyclooctyloxy)-3-methyl-2-methylene-4-oxobutanoyl)oxy)acetic acid] | 
27.6 µM | C=C(CC(=O)O[C@H](C)CCCCC)C(=O)OCC(=O)O [Example 173, (R)-2-((4-(heptan-2-yloxy)-2-methylene-4-oxobutanoyl)oxy)acetic acid] | 
10.9 µM | C=C(CC(=O)OC(C)CCCCCCC)C(=O)OCC(=O)O (centres unmarked) [Example 174, 2-((2-methylene-4-(nonan-2-yloxy)-4-oxobutanoyl)oxy)acetic acid] | 
12 µM | C=C(CC(=O)OC(C)c1cc(Cl)cc(Cl)c1)C(=O)OCC(=O)O (centres unmarked) [Example 176, 2-((4-(1-(3,5-dichlorophenyl)ethoxy)-2-methylene-4-oxobutanoyl)oxy)acetic acid] | 
32.8 µM | C=C(CC(=O)OC1C2CCCC1CCC2)C(=O)OCC(=O)O (centres unmarked) [Example 181, 2-((4-(bicyclo[3.3.1]nonan-9-yloxy)-2-methylene-4-oxobutanoyl)oxy)acetic acid] | 
9.6 µM | C=C(CC(=O)O[C@H](C)CCCCCCC)C(=O)OCC(=O)O [Example 183, (R)-2-((2-methylene-4-(nonan-2-yloxy)-4-oxobutanoyl)oxy)acetic acid] | 
33.9 µM | C=C(CC(=O)O[C@H](C)C1CCCCC1)C(=O)OCC(=O)O [Example 184, (R)-2-((4-(1-cyclohexylethoxy)-2-methylene-4-oxobutanoyl)oxy)acetic acid] | 
3.5 µM | C=C(CC(=O)O[C@H](C)CCCCCC)C(=O)O[C@H](CC(=O)O)C(F)(F)F [Example 188, (R)-4,4,4-trifluoro-3-((2-methylene-4-(((R)-octan-2-yl)oxy)-4-oxobutanoyl)oxy)butanoic Acid] | 
24.3 µM | C=C(CC(=O)OC1(C)CC2(CCCCC2)C1)C(=O)OCC(=O)O [Example 195, 2-((2-methylene-4-((2-methylspiro[3.5]nonan-2-yl)oxy)-4-oxobutanoyl)oxy)acetic acid] | 
21.4 µM | C=C(CC(=O)OC1C(C)(C)CCCC1(C)C)C(=O)OCC(=O)O [Example 197] | 
22 µM | C=C(CC(=O)O[C@@H](C)C1CCCCC1)C(=O)OCC(=O)O [Example 203, (S)-2-((4-(1-cyclohexylethoxy)-2-methylene-4-oxobutanoyl)oxy)acetic acid] | 
1.7 µM | C=C(CC(=O)O[C@H](C)CCCCCC)C(=O)O[C@@H](CC(=O)O)C(F)(F)F [Example 205, (S)-4,4,4-trifluoro-3-((2-methylene-4-(((R)-octan-2-yl)oxy)-4-oxobutanoyl)oxy)butanoic acid] | 
19.1 µM | C=C(CC(=O)OC1(CCCCC)CC1)C(=O)OCC(=O)O [Example 206, 2-((2-methylene-4-oxo-4-(1-pentylcyclopropoxy)butanoyl)oxy)acetic acid] | 
